Source: patent publication US20230151432A1, “KIF18A INHIBITORS FOR TREATMENT OF NEOPLASTIC DISEASES” (AMGEN INC., priority 2020, published 2023)

How the values were obtained:
[1] = Tolerability (body weight, blood counts) in tumor-bearing nude mice; format: in vivo, mouse; conditions: 18 days
Experimental: Female athymic nude mice were injected with 5×10^6 cells in 0.1 mL subcutaneously in the right flank. After tumors were established (average tumor volume of 150 mm^3), animals were randomized into 4 treatment groups (vehicle alone, KIF18A inhibitor at 10, 30, or 100 mg/kg) with 10 animals per group and treated orally once per day (PO, QD) starting on day 25 post-tumor implantation. Tumor measurement was calculated from the length, width and height of tumors measured with a PRO-MAX electronic digital caliper (Japan Micrometer Mfg. Co. LTD). The tumor volume was calculated as [L×W×H] and expressed in mm^3. Tumor volume and animal body weight measurements were determined twice per week (study start day 25, study end day 45). A single mouse was removed from the study (KIF18A inhibitor 30 mg/kg group) due to abdominal distention, a finding likely unrelated to compound.
Data was plotted using GraphPad Prism software (V7.0.4), tumor volume and body weight data are expressed as means plus or minus standard error of the mean and plotted as a function of time. Statistical significance of observed differences between growth curves were calculated using SLACR package (v.1.0.3). Statistical significance for tumor regressions were performed by paired Student's t-Test on the initial and final tumor volumes with significant tumor regression p-values (***p≤0.0001) for all three KIF18A inhibitor treatment groups. KIF18A inhibitor dose 10 mg/kg (81% regression, 5 of 10 tumor-free), 30 mg/kg (98% regression, 8 of 9 tumor-free), and 100 mg/kg (97% regression, 7 of 10 tumor-free).
Female athymic nude mice were injected with 5×10^6 OVCAR-8 cells in 0.1 mL subcutaneously in the right flank. […] Tumor volume and animal body weight measurements were determined twice per week (study start day 25, study end day 47). Tumor measurements, formulas, and regression analysis as described above for FIGS. 5A-5B. Data was plotted using GraphPad Prism software (V7.0.4), tumor volume and body weight data are expressed as means plus or minus standard error of the mean and plotted as a function of time. Statistical significance of observed differences between growth curves were calculated using SLACR package (v.1.0.3).
Data was graphed using GraphPad Prism 7.05.
Tumor volume and body weight assessment performed as described above. After the final dose on day 36, plasma pharmacokinetic analysis was performed as described above. All data analysis was performed as described above.
Animals were dosed IP daily with vehicle alone, C9 (50 or 100 mg/kg), or C12 (25 or 50 mg/kg). […] Tumor volume and body weight assessment performed as described above. After the final dose on day 46, plasma pharmacokinetic analysis was performed as described above except blood was drawn by retro-orbital bleed method.

BT-549 TNBC cells = assay: Western blot and cGAS/γH2A.X immunostaining (Example 8); format: cell-based, human; conditions: 0.2 μM, 48 hours
Experimental: In order to analyze the effects on mitosis, BT-549 TNBC cells were seeded into 6-well plates at a density of 100,000 per well in 3 replicate wells in 4 mL of complete growth media. The next day, cells were treated with DMSO, KIF18A inhibitor #1 (Compound C11, 0.5 μM), or KIF18A inhibitor #2 (Compound C9, 0.01 μM) in 4 mL of complete media at a final DMSO concentration of 0.5%. After 48 hours, cell lysates were prepared for each treatment group (combined media and cells from 3 wells) using Minute™ Total Protein Extraction kit (SD-001, Invent Biotechnologies) lysis conditions according to manufactures protocol, supplemented with protease inhibitor cocktail (cOmplete™, Roche) and phospatase inhibitors (PhosphoStop, Roche). Primary antibodies included rabbit anti-p-Histone H3 (serine-10) (06-570, Millipore, 1: 2000), mouse anti-γH2A.X (serine-139) (05-636, Millipore, 1: 2000), mouse anti-cleaved-PARP (cl-PARP) (#51-900017, BD Pharmingen, 1:500), mouse anti-BubR1 (612503, BD Pharmingen, 1:5000), mouse anti-total HEC1 (ab3613, ABCAM, 1: 1000), rabbit anti-pHEC1(serine-55) (GTX70017, Genetex, 1: 500), and rabbit anti-GAPDH (2118, Cell Signaling, 1:10,000).
Also, cGAS and γH2A.X (serine-139) immunostaining in BT-549 TNBC cells was carried out. […] Wide-field images were captured using 40×objective on upright Nikon Eclipse NI-E epi-fluorescence microscope running Elements software.

[2] = OVCAR-3 study, C9 100 mg/kg, C12 25 mg/kg IP daily

CC(C)(C)NS(=O)(=O)c1cccc(NC(=O)c2ccc(S(=O)(=O)NC(C)(C)C)cc2N2CCC3(CC2)CC3)c1 [Compound C9, 4-(N-(tert-butyl)sulfamoyl)-N-(3-(N-(tert-butyl)sulfamoyl)phenyl)-2-(6-azaspiro[2.5]octan-6-yl)benzamide]
tolerability (body weight) ([1]; CAL-51 study, C9 100 mg/kg, C12 25 mg/kg IP daily): well-tolerated | body weight loss or changes in blood counts [1, 2]: no evidence of body weight loss or changes in blood counts | tolerability [1, 2]: well-tolerated | tolerability (body weight) ([1]; OVCAR-8 study, C9 50 or 100 mg/kg, C12 25 or 50 mg/kg IP daily): well-tolerated | cGAS and γH2A.X staining of cytoplasmic micronuclei (BT-549 TNBC cells): increase in DNA damage and cGAS positive micronuclei
